Active and inactive are the calls of the source.

For test [1], the target named is T1, Lysosomal acid glucosylceramidase (Homo sapiens, UniProt P04062).
T1 sequence (P04062 whole entry): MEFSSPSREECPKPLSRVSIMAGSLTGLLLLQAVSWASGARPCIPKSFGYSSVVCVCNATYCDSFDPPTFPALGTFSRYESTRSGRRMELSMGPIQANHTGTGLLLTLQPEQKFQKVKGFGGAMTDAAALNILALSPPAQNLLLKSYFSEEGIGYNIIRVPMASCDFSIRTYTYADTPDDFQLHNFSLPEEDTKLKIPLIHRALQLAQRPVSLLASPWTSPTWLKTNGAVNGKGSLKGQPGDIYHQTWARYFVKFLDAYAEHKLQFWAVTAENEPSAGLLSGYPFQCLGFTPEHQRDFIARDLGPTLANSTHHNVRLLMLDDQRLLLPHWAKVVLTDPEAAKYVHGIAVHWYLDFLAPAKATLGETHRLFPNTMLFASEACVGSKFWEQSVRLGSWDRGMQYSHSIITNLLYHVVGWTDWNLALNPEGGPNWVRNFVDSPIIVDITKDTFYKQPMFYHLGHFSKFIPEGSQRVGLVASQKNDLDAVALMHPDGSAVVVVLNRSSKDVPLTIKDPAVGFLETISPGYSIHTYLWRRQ
Nature of the test: Dose response cell-based high throughput screening assay to identify enhancers of beta-glucosidase activity. [Related pubchem assays: 784 ]. Type of test: functional.

Test [2] is described as follows: NIH-3T3 fibroblast cytotoxicity, dose response, cytotoxicity control, cell-based, fluorescence, Alamar Blue, secondary assay (AID 2327).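 Further: NIH-3T3 mouse fibroblasts cultured with fluconazole at 8 µg/mL.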 Format: functional. Background: The colour change of resazurin is a common sign of viable cells or microbes.
Test [3] is described as follows: fluconazole-exposed Candida albicans growth modulators – fluorescence, retest, confirmation (AID 2467). Format: functional, cell-based.
Test [4] is described as follows: A High Throughput Confirmatory Assay used to Identify Novel Compounds that Inhibit Mycobacterium Tuberculosis in the absence of Glycerol. Type of test: functional.
The target in test [5] is T2, Rac GTPase-activating protein 1 (Homo sapiens, UniProt Q9H0H5).
T2 sequence (Q9H0H5 whole entry): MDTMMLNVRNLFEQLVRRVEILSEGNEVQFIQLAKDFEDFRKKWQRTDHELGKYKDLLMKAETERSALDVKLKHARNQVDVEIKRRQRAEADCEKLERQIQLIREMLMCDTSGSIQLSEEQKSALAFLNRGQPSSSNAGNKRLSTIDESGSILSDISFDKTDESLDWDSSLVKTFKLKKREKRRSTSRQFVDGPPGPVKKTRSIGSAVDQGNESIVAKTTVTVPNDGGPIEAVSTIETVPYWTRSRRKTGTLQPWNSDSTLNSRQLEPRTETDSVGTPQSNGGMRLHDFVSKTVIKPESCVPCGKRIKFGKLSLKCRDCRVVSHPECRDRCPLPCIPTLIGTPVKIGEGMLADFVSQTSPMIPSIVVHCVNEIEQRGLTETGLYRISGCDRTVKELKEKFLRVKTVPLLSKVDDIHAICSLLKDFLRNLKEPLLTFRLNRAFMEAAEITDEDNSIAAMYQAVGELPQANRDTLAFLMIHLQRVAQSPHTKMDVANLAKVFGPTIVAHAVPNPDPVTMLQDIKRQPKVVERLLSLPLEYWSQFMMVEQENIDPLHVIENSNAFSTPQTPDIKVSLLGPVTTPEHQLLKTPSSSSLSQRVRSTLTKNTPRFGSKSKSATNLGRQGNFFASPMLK
The test is described as follows: blockers of MgcRacGAP-driven Rac1 GTP hydrolysis – biochemical, ADP Hunter fluorescence, primary and confirmatory, confirmation (AID 624330). Type of test: functional.

Test [6] in a line: A cytotoxicity screen of small molecule inhibitors of the PhoP region in Salmonella typhi identified in the primary screen. [Related pubchem assays: 1850, 1864, 1985 ]. Format: functional.

By EC50 is commonly meant the concentration that produces a half-maximal response. Regarding `O=C(CCS(=O)(=O)c1ccc(Br)cc1)N1CCN(Cc2ccccc2)CC1`, in test [1], the EC50 is on record as > 50 µM (not active).
The term IC50 denotes the concentration that gives 50% inhibition. `O=C1NN(c2ccc(Br)cc2)C(=O)/C1=C\c1ccc(O)cc1O`: the EC50 in test [2] was > 150 µM (inconclusive); in test [3] it was > 38 µM (not active). Also, the IC50 in test [4] was > 100 µM (active); in test [5], 159 µM (active).
`C=CCN(C(=O)Cn1nnc2ccccc21)C(C(=O)NCCOC)c1ccc(OC)cc1OC` (stereo unspecified): the half-maximal effective concentration (EC50) in test [1] is > 50 µM (not active).
For `Nc1cc([N+](=O)[O-])cc2oc(-c3ccccc3)cc12`, the IC50 in test [4] was > 100 µM (active).
Take `CCOc1ccc(OCCSc2nc3ccccc3[nH]2)cc1`: the EC50 in test [6] is > 50 µM (active).
For `Cc1cc(C)cc(N2CCN(C(=O)N3CCOCC3)CC2)c1`, the 50% effective concentration (EC50) in test [1] is listed as > 50 µM (not active).
For `O=C(CN(Cc1ccco1)C(=O)CNS(=O)(=O)c1ccc(Cl)cc1)NCc1ccc(F)cc1`, the EC50 in test [6] is > 50 µM (active).
Still for that read-out and setting: then `CC1CCCN(C(=O)Cn2c(=O)oc3cc(S(=O)(=O)N4CCCCC4)ccc32)C1` (stereo unspecified), with > 50 µM (active).

Source of the values: ChEMBL document CHEMBL1201862, “PubChem BioAssay data set” (2004).
